In ChEMBL document CHEMBL3507680, “University of Dundee, Gates Library screen for HepG2 cell viability” one finds cytotoxicity data, which are given here for 96 compounds.

The data set is described as follows: Human HepG2 cell viability assay in 384 well format. Type of data set: toxicity, cell-based. The arrangement: dose 125 nL, time 70.5 hour; cytotoxicity at 70.5 h: concentration not given beside the values. The following applies: HepG2 cells, read-out: Inhibition.
With `Cc1ccccc1CN(C)C(=O)CN1CCOC(Cn2cncn2)C1` (stereo unspecified), the cytotoxicity at 70.5 h was found to be 1.73%. `Cn1nc(C(=O)NC2(c3ccccc3)CCC2)ccc1=O`: the cytotoxicity at 70.5 h is 1.95%. In the case of `CCc1ccc(C(C)NC(=O)N2CCC(n3cncn3)CC2)cc1` (stereo unspecified) it was -8.05%. Next, `CC(C)N(C)S(=O)(=O)N(C)Cc1cnn(C)c1`: -3.87%; `CN(C)Cc1cc(C2CCCCN2S(=O)(=O)Cc2ccccc2)nn1C` (stereo unspecified): -14.1%; `O=C(NC[C@]12COC[C@H]1CN(CC1CCOCC1)C2)c1ccccc1`: 1.78%. In the case of `Cc1cnn(CC2CN(Cc3nc(C4CC4)no3)CCO2)c1` (stereo unspecified) it was -6.98%. Regarding `CC(C)(C)c1n[nH]c(C2CN(Cc3nnc(C4CCC4)o3)CCO2)n1` (stereo unspecified), the cytotoxicity at 70.5 h was -2.38%. Next, `CC(=O)Nc1ccc([C@@H](O)[C@H]2COCC(=O)N2CC(C)C)cc1`: 1.58%. In the case of `NC(=O)C1CCN(Cn2nc(-c3ccc(F)cc3)oc2=O)CC1`, the cytotoxicity at 70.5 h was 5.9%. Next, `COc1cc(N2CCCn3cnc(COC(C)C)c3C2)ncn1`: 13.3%. Next, `O=C(c1csc(-c2ccco2)n1)N(CC1CCOC1)C1CC1` (stereo unspecified): 4.66%. Consider `CCOc1ncccc1CNC(=O)Nc1ccc(OC)c(OC)c1`, for which the cytotoxicity at 70.5 h is -5.39%. Next, `COc1ccc(-c2nc(CCNc3nnc(C)c(C)c3C#N)co2)cc1`: 13.7%; `CN(C(=O)Cc1coc(-c2cccs2)n1)C1(C#N)CCC1`: -6.29%; `c1cncc(N2CCCn3nnc(CN4CCCCC4)c3C2)c1`: -0.156%. For `Cc1n[nH]c(C)c1C1CCCN1C(=O)Cc1cccc(F)c1` (stereo unspecified), the cytotoxicity at 70.5 h was -19.6%.

Turning to `Cc1cnc(C(=O)N2CCCn3c(nc(CN(C)C)cc3=O)C2)cn1`, the cytotoxicity at 70.5 h stood at 9.93%. In the case of `O=C(NCC(=O)N1CCCC1)c1nc(Cc2c(Cl)cccc2Cl)no1` it was -16.3%. On to `Cc1ccc2oc(SCC(N)=O)nc2n1`, for which the cytotoxicity at 70.5 h was -21.9%. For the compound `COc1cc(N2C[C@H]3CCC[C@@H](CN(C)C4CC4)[C@H]3C2)ncn1`, the cytotoxicity at 70.5 h was -1.7%.

Turning to `CNC(=O)[C@@H]1C[C@@H](N)CN1C1CCN(Cc2ccccn2)CC1`, the cytotoxicity at 70.5 h was 20.3%. In the case of `CN(Cc1nnc(C2CC2)n1C)C1CCN(CCc2cnn(C)c2)C1` (stereo unspecified) it was 39.7%. In the case of `CO[C@@H]1CCN(Cc2cnn(C)c2)[C@@H]2CN(Cc3cccnc3)C[C@@H]21`, the cytotoxicity at 70.5 h was -9.6%.

Regarding `Cc1ncsc1C(=O)OCC1CCN(c2ccccc2)C1` (stereo unspecified), the cytotoxicity at 70.5 h was -97.5%. Next, `Cc1nc2cc(=O)[nH]n2c(C)c1CNC(=O)c1cnn(C(C)(C)C)c1`: 4.01%; `COCCO[C@H]1CCN(C(=O)C2CCOCC2)[C@H]1Cc1ccncc1`: 29.3%; `Cc1ccc(-c2nc(CNCC3CN(C)CCO3)co2)cc1` (stereo unspecified): -2.95%.

`COc1cccc(CNc2cc(C)nc(-c3ccncc3)n2)c1O`: the cytotoxicity at 70.5 h was -7.57%. As for `CC(=O)NC(CC(=O)Nc1ccc(C)cn1)c1ccccc1` (stereo unspecified), the cytotoxicity at 70.5 h is -6.79%. In the case of `CC(=O)N1CCC2(C=C(C(=O)NC3CC3)c3ccccc32)CC1` it was -13.7%; in that of `CCCNC(=O)N1CCC(Oc2cc(C)ccc2F)(C(=O)O)CC1`, 10.3%.

With `COCc1cc(CNC(=O)c2c(C)cc(C)[nH]c2=O)n[nH]1`, the cytotoxicity at 70.5 h was -1.97%. Next, `O=C(C1CCOCC1)N1C[C@@H]2C[C@@H](c3nc(C4CC4)cs3)O[C@@H]2C1`: 8.69%. For `Cc1ccc2nc(CN3CCCCC3C(=O)N3CCOCC3)cn2c1` (stereo unspecified), the cytotoxicity at 70.5 h amounted to 7.36%.

As to `CCCc1n[nH]c(C2CN(C(=O)CCCn3cccn3)CCO2)n1` (stereo unspecified), the cytotoxicity at 70.5 h is -7.13%.

On to `CCOC(C)C(=O)N1CCCN(Cc2csc(CC)n2)CC1` (stereo unspecified), for which the cytotoxicity at 70.5 h was 22.4%. As for `O=C(CCNC(=O)C1=Cc2ccccc2OC1)NCc1ccncc1`, the cytotoxicity at 70.5 h was -2.01%.

In the case of `Cc1ccccc1CN1CCCN(CCN2CCOC2=O)CC1`, the cytotoxicity at 70.5 h was -1.61%. Next, `O=C(CC(F)(F)F)N1C[C@H]2CC[C@@H]1CN(Cc1ccccc1)C2`: -3.61%. In the case of `COc1cccc(-c2noc(C3CCN(CC(N)=O)C3)n2)c1` (stereo unspecified) it was -4.11%; in that of `Cc1nc(C2CCCNC2)cc(N(C)CCc2cn[nH]c2)n1` (stereo unspecified), 20.1%; in that of `Cc1ccc(C(=O)N2CC[C@H]3O[C@@H](c4noc(C)n4)C[C@H]3C2)o1`, -8.48%. Next, `Cc1ccc(-c2nc(CN3CCCC(Cn4cncn4)C3)cs2)o1` (stereo unspecified): 6.82%; `Cc1ccccc1CC(=O)N1C[C@@H](O)[C@H](N2CCN(C)CC2)C1`: 0.191%; `Cc1nc(C(C)C)sc1C(C)N(C)C(=O)c1ccc(=O)n(C)c1` (stereo unspecified): 1.52%. In the case of `CCNc1nc(-c2cccnc2)c(-c2ccnc(N3CCCC3)n2)s1`, the cytotoxicity at 70.5 h is -6.77%. On to `CSC(CNS(C)(=O)=O)c1cccc(Cl)c1` (stereo unspecified), for which the cytotoxicity at 70.5 h worked out at 24%. Next, `Cc1ccc(-c2snnc2C(=O)NCCCO)cc1`: -11.1%; `CCC[C@@H]1CN(Cc2ccc(N(C)C)nc2)C[C@H]1N(C)C`: -9.01%; `CNc1ncc(CN(C)C(=O)c2cccc(-n3cccn3)c2)cn1`: -6.94%.

Take `O=S(=O)(NCCN1CCCCC1Cn1cncn1)c1ccccc1` (stereo unspecified): the cytotoxicity at 70.5 h is -3.24%. In the case of `CCCc1cc(N2CCCC2Cn2nc(C)cc2C)n2ncnc2n1` (stereo unspecified) it was -5.55%. For `CC(C(=O)N1CCc2sccc2C1)N1CCC(N2CCCC2)CC1` (stereo unspecified), the cytotoxicity at 70.5 h is 0.91%. Next, `COCCN(CC1CC1)c1nc(CCN)nc2sc(C)c(C)c12`: 26.7%. With `Cc1ccc(-n2nnc(CC(=O)N3CCSCC3)c2C)cc1`, the cytotoxicity at 70.5 h is -12.8%.

As for `CCCOc1ccc(CNC(=O)N2CCC(C(N)=O)C2)cc1` (stereo unspecified), the cytotoxicity at 70.5 h was -0.602%. Next, `O=C(N[C@@H]1CCN(c2nccc3ccccc23)C[C@H]1O)c1cnccn1`: 9.52%; `Cc1cccc(CN2C[C@@H]3[C@@H](C(=O)NCC(C)C)CCS(=O)(=O)[C@@H]3C2)c1`: -6.13%; `CCOC(=O)c1cnn(C2CCN(C(=O)CC3C=CCC3)CC2)c1N` (stereo unspecified): -1.64%. Next, `Cc1nc(C2CCCN(C(=O)c3ccc(N4CCCC4)nn3)C2)no1` (stereo unspecified): 0.493%; `Cc1cc(C)nc(CN(C)C(=O)c2ccccc2C2CCNC2)c1` (stereo unspecified): -5.21%. Next, `COCCC(=O)N1CC2(CCN(c3ccccc3)C2)C1`: 3.88%; `COC(=O)[C@H](C)NC(=O)COc1nn(C)c2nc(C)cc(C)c12`: -16.3%; `COCCCN1CCCN(C(C)c2nc(C3CC3)no2)CC1` (stereo unspecified): -4.41%.

Consider `Cc1cccc(CN2CCC(n3cc(CCO)nn3)CC2)c1C`, for which the cytotoxicity at 70.5 h came out at 2.7%.

Take `COc1coc(C(=O)Nc2nc(C)cs2)cc1=O`: the cytotoxicity at 70.5 h was -15.8%. Next, `Cc1ccc(CN(CCCn2ccnc2)Cc2cnn(C)c2)s1`: 25.9%. In the case of `CCC[C@@H](NC(N)=O)C(=O)N1CCc2c(Cl)cccc2C1` it was -2.76%; in that of `CC(=O)Nc1ccc(CNC2CCCSC2)cc1` (stereo unspecified), 23.3%. Next, `Cc1cnc(N2CC[C@H]3[C@H](C[C@@H](CN(C)C)N3C)C2)nc1`: -6.09%; `CCN(CC)Cc1nc2c(o1)CN(C(=O)c1ccc3[nH]ccc3c1)C2`: -17%. For `CN(Cc1ccsc1)C(=O)c1nc(N2CCCC2)ncc1Cl`, the cytotoxicity at 70.5 h was -6.35%. Regarding `Cc1oc(CN(C)C(=O)c2ccc(Br)cc2)cc1C(=O)O`, the cytotoxicity at 70.5 h was -8.74%. As for `COCCCNC(=O)CN1CCC(c2ccccc2)C1` (stereo unspecified), the cytotoxicity at 70.5 h was -7.32%. In the case of `Cc1ccc(CN2C(=O)CC[C@]23CC[C@@H](NCC2CCOC2)CC3)cc1` (stereo partly specified) it was 18.5%.

Turning to `CCN(C(=O)CN1CCN(CC(C)O)CC1)C1=CCCCC1` (stereo unspecified), the cytotoxicity at 70.5 h was -3.37%. Next, `O=C([C@@H]1C[C@@H]2CCN(C3CCOCC3)C[C@@H]2O1)N1CCOCC1`: -7.48%; `O=C(NCc1nn(-c2ccccc2)c2c1CCC2)NCC1COCCO1` (stereo unspecified): -9.01%; `Cc1cc(C)c2nc(CNC3CCNC3=O)cc(O)c2c1` (stereo unspecified): -3.2%. `CCO[C@H]1CC[C@H]2[C@H]1OCCN2C(=O)CC1=CCCCC1`: the cytotoxicity at 70.5 h is 24%.

Turning to `CCOCC1CN(Cc2ccoc2)Cc2cn(CC3CC3)nc21` (stereo unspecified), the cytotoxicity at 70.5 h is -19.8%. `Cc1nnc(-c2cccc(C#N)c2)n1C1CCCN(C(C)C)C1=O` (stereo unspecified): the cytotoxicity at 70.5 h was -9.5%. Next, `Nc1nccnc1C(=O)N(Cc1ccccc1O)CC1CCCO1` (stereo unspecified): -13.9%. In the case of `Cc1noc(C)c1C(=O)N1CCCN(Cc2nccn2C(C)C)CC1`, the cytotoxicity at 70.5 h was 0.0993%. As for `COC[C@H]1CCCN1c1nccc(-c2cnn(-c3ccccc3C)c2)n1`, the cytotoxicity at 70.5 h is -1.39%. Turning to `Nc1cc(C(=O)NC2CCCN(CCCc3ccccc3)C2)ccn1` (stereo unspecified), the cytotoxicity at 70.5 h worked out at 12.3%. Next, `COc1ccc(F)cc1CSCC(=O)N(C)C1CC1`: -0.442%.

With `CC(C)c1ccc(OCCC(=O)N2CCC(C(=O)N(C)C)CC2)cc1`, the cytotoxicity at 70.5 h is -3.99%. Next, `Cc1nn(C)c(C)c1NC(=O)CNc1ccc(F)c(C(F)(F)F)c1`: -2.51%; `CCCn1cc(CN2CCC(c3[nH]ncc3S(C)(=O)=O)C2)cn1` (stereo unspecified): -7.48%; `CN(C)C(=O)C1CN(Cc2ccc(C#N)cc2)c2ccccc2O1` (stereo unspecified): 4.19%. Next, `CN(C)[C@H]1C[C@@H](Cc2cc(CO)on2)C1(C)C`: -14.4%; `Cc1noc(C)c1CS(=O)(=O)C(C)C(=O)N(C)c1ccccc1` (stereo unspecified): -111%; `Cc1cc(CN2C[C@@H]3COC[C@]3(CNC(=O)c3ccsc3)C2)no1`: -8.24%. In the case of `C[C@@H]1CN(c2nc3c(cc2C(N)=O)CCC3)C[C@]1(C)O` it was -15%.
